Experiment [1] deals with recombinant protein KIF18A (kinesin domain: aa 1-467) (Homo sapiens (Human), UniProt Q8NI77). Briefly: Assay on inhibition of KIF18A enzymatic activity (ADP-Glo). The class given is biochemical. Conditions: KIF18A 80 nM, ATP 80 μM, 3 h at room temperature, ADP-Glo luminescence; read-out: IC50 (μM), inhibitory effects of compounds on KIF18A enzymatic activity. An excerpt: The recombinant protein KIF18A (kinesin domain: aa 1-467) used in this assay was expressed by the Bac-to-Bac baculovirus expression system from Invitrogen, and the resulting protein was purified for use in this assay (Seki, M. et al. 2003 Nucleic Acids Res.). Quantitative detection of KIF18A enzymatic activity was completed using an ADP-Glo™ kinase assay kit (Promega Inc). Related procedures strictly followed the product instructions, which are briefly described as follows:
The reaction system consisted of a test compound, the recombinant protein KIF18A (aa 1-467), ATP (Promega Inc), and an assay buffer. The test compound was prepared into a 0.5 mM stock solution using DMSO (Sigma Inc) and then serially diluted in DMSO. The assay buffer consisted of an aqueous solution of 15 mM Tris, 10 mM MgCl2 (Sigma Inc), 0.01% Pluronic F-68 (Life Technologies Inc), 1 μM paclitaxel (Cytoskeleton Inc), 30 μg/mL porcine tubulin (Cytoskeleton Inc), and 2% DMSO. The KIF18A protein (final concentration: 80 nM) and the compound at different concentrations (1 μL) were added to the prepared assay buffer (50 μL), and the mixture was incubated at room temperature for 15 min. Then, ATP (final concentration: 80 μM) was added to the reaction mixture, and the resulting mixture was incubated at room temperature for 3 h. After the reaction was completed, 5 μL of the ADP-Glo™ reagent and 2.5 μL of the reaction mixture were added to a 384-well plate (Grenier Inc). The resulting mixture was mixed homogeneously, then sealed by an aluminum foil sealing film, and incubated at room temperature in the dark for 40 min. Finally, 10 μL of the […] was added to each reaction well, and the mixture was incubated at room temperature in the dark for 40 min. After all reactions were completed, the luminescence values of the wells were read on a microplate reader (Molecular Device_SpectraMax Id5), and the inhibition ratios were calculated. The calculation formula for the inhibition rates was as follows: inhibition rate=(1−(compound group−blank group)/(negative control group−blank group))×100%. Then, based on the inhibition rates at different compound concentrations, the IC50 value of the test compound was calculated using the GraphPad Prism 8 software.
For orientation: ADP-Glo first removes unused ATP, then detects ADP through luciferase.

Another experiment relates to NIH:OVCAR-3 cells. The experiment can be described thus: Assay on inhibition of OVCAR3 tumor cell proliferation (CellTiter-Glo). The class given is cell-based. To be noted: Homo sapiens, OVCAR-3, 72 h, 3 days of drug treatment, read-out: IC50 (μM), inhibitory effects of compounds on tumor cell proliferation. Here is the method: NIH:OVCAR-3 cells (ATCC, Cat No. HTB-161, purchased from Co-Bier) were seeded into a T75 culture flask and cultured in an RPMI 1640 medium containing 20% FBS for 3 days in preparation for subsequent culturing and seeding into a 96-well plate for the cell proliferation assay.
The OVCAR3 cells were seeded at a density of 3000 cells/100 μL/well into the 96-well cell plate, and then the plate was incubated in an incubator (37° C., 5% CO2) for 18 h. On the second day, drug treatment was started. Serially diluted test compound solutions (each drug starting at a concentration of 10 μM, diluted in DMSO, with a dilution ratio of 1:3, and nine gradient points for each drug) or DMSO (negative control) was added to the medium in the plate at 100 μL/well, and a blank group was set up with only medium, but no seeded cell strains. After the drug addition, the plate was incubated in the incubator for another 3 days (37° C., 5% CO2). On the fourth day, plate detection was performed. To each well, 100 μL of CellTiter-Glo reagent (Promega G9243) was added. The plate was shaken for 5 min and then left to stand at room temperature for 5 min. The chemical luminescence signal value of each well was determined using a microplate reader (PerkinElmer EnVision®2104). Cell proliferation inhibition rate=(1−(compound group−blank group)/(DMSO group−blank group))×100%. Then, the IC50 value of each compound was calculated using the GraphPad Prism 8 software.

recombinant protein KIF18A (kinesin domain: aa 1-467), sequence (Q8NI77 1-467): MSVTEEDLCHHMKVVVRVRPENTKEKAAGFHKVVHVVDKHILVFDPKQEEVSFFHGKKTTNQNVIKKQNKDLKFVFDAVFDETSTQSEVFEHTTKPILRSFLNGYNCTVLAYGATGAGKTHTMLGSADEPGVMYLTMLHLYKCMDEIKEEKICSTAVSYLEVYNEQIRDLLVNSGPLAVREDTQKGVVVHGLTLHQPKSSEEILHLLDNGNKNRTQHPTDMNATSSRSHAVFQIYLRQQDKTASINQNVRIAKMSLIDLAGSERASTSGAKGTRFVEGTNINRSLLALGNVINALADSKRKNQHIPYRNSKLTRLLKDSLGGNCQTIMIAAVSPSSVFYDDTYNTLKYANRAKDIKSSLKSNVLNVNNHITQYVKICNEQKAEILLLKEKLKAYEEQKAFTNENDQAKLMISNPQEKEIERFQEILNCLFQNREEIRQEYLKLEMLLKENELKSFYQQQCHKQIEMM
recombinant protein KIF18A (kinesin domain: aa 1-467), sequence (P02550 whole entry partner, the tested form may be a part): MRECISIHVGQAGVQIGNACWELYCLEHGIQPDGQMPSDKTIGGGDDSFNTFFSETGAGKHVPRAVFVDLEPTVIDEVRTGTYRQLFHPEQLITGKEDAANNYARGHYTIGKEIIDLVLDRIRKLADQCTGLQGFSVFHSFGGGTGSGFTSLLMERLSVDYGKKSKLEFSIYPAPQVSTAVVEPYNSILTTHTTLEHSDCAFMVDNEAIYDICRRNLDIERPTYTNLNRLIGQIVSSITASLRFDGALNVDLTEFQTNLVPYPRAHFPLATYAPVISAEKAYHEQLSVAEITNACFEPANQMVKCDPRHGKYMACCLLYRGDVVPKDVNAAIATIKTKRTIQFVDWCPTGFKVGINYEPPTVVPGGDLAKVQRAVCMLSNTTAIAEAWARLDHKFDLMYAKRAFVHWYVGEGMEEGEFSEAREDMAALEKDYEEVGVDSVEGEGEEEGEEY
recombinant protein KIF18A (kinesin domain: aa 1-467), sequence (P02554 whole entry partner, the tested form may be a part): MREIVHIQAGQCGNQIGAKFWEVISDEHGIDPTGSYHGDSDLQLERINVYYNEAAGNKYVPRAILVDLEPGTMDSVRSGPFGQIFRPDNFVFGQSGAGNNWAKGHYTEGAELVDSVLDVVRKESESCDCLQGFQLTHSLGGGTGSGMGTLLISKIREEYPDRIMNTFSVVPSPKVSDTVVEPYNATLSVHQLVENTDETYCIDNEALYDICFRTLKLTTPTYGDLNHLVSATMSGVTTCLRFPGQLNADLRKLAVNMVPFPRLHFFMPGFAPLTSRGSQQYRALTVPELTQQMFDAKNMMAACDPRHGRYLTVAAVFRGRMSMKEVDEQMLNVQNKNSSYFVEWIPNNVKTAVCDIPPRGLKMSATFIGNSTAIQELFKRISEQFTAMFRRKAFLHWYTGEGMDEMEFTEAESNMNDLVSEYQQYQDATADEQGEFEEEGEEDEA

In the case of `Cc1cc(-c2cnn(-c3ccc(NS(=O)(=O)[C@@H](C)CO)cc3N3CCC4(CC3)CC4)c2)nc(N2CCC(F)(F)CC2)n1` [Example I-112, (S)—N-(4-(4-(2-(4,4-Difluoropiperidin-1-yl)-6-methylpyrimidin-4-yl)-1H-pyrazol-1-yl)-3-(6-azaspiro[2.5]octan-6-yl)phenyl)-1-hydroxypropane-2-sulfonamide], the IC50 was determined as 0.002 µM in experiment [1] and 0.107 µM in the experiment with NIH:OVCAR-3 cells.
For `Cc1cc(-c2nnc(-c3ccc(NS(=O)(=O)[C@H](C)CO)cc3N3CCC4(CC3)CC4)o2)nc(N2CCC(F)(F)CC2)n1` [Example I-40, (R)—N-(4-(5-(2-(4,4-Difluoropiperidin-1-yl)-6-methylpyrimidin-4-yl)-1,3,4-oxadiazol-2-yl)-3-(6-azaspiro[2.5]octan-6-yl)phenyl)-1-hydroxypropane-2-sulfonamide], in that order: 0.011 µM and 0.076 µM.
For `O=c1ccc(-c2cnn(-c3ccc(NS(=O)(=O)CCO)cc3N3CCC4(CC3)CC4)c2)nn1C1CC(F)(F)C1` [Example I-121, N-(4-(4-(1-(3,3-Difluorocyclobutyl)-6-oxo-1,6-dihydropyridazin-3-yl)-1H-pyrazol-1-yl)-3-(6-azaspiro[2.5]octan-6-yl)phenyl)-2-hydroxyethane-1-sulfonamide], in that order: 0.003 µM and 0.056 µM.
Regarding `Cc1cc(-c2nnc(-c3ccc(NS(=O)(=O)CCO)cc3N3CCC4(CC3)CC4)o2)nc(N2CC(F)(F)C2)n1` [Example I-3, N-(4-(5-(2-(3,3-Difluoroazetidin-1-yl)-6-methylpyrimidin-4-yl)-1,3,4-oxadiazol-2-yl)-3-(6-azaspiro[2.5]octan-6-yl)phenyl)-2-hydroxyethane-1-sulfonamide], the values for the IC50 (in experiment [1]; in the experiment with NIH:OVCAR-3 cells) were 0.011 µM and 0.051 µM, respectively.
For `Cc1cc(-c2nnc(-c3ccc(NS(=O)(=O)CCO)cc3N3CCC4(CC3)CC4)s2)nc(N2CCCC(F)(F)C2)n1` [Example I-85, N-(4-(5-(2-(3,3-Difluoropiperidin-1-yl)-6-methylpyrimidin-4-yl)-1,3,4-thiadiazol-2-yl)-3-(6-azaspiro[2.5]octan-6-yl)phenyl)-2-hydroxyethane-1-sulfonamide], in that order: 0.022 µM and 0.284 µM.
On the same counts, the results for `Cc1cc(-c2nnc(-c3ccc(NS(=O)(=O)CCO)cc3N3CCC4(CC3)CC4)o2)nc(N2CC3C(C2)C3(F)F)n1` (stereo not drawn) [Example I-88, N-(4-(5-(2-(6,6-Difluoro-3-azabicyclo[3.1.0]hexan-3-yl)-6-methylpyrimidin-4-yl)-1,3,4-oxadiazol-2-yl)-3-(6-azaspiro[2.5]octan-6-yl)phenyl)-2-hydroxyethane-1-sulfonamide] are 0.001 µM and 0.015 µM.
For `Cc1cc(-c2nnc(-c3ccc(NS(=O)(=O)CCO)cc3N3CCC4(CC3)CC4)o2)nc(N2CCCC(F)(F)C2)n1` [Example I-7, N-(4-(5-(2-(3,3-Difluoropiperidin-1-yl)-6-methylpyrimidin-4-yl)-1,3,4-oxadiazol-2-yl)-3-(6-azaspiro[2.5]octan-6-yl)phenyl)-2-hydroxyethane-1-sulfonamide], the IC50 amounted to 0.001 µM in experiment [1] and 0.073 µM in the experiment with NIH:OVCAR-3 cells.
On the same counts, the results for `Cc1cc(-c2cn(-c3ccc(NS(=O)(=O)CCO)cc3N3CCC4(CC3)CC4)nn2)nc(N2CCC(F)(F)CC2)n1` [Example I-79, N-(4-(4-(2-(4,4-Difluoropiperidin-1-yl)-6-methylpyrimidin-4-yl)-1H-1,2,3-triazol-1-yl)-3-(6-azaspiro[2.5]octan-6-yl)phenyl)-2-hydroxyethane-1-sulfonamide] are 0.004 µM and 0.038 µM.
On the same counts, the results for `Cc1cc(-c2nnc(-c3ccc(NS(=O)(=O)CCO)cc3N3CCC4(CC3)CC4)o2)cc(N2CCC(F)CC2)n1` [Example I-105, N-(4-(5-(2-(4-Fluoropiperidin-1-yl)-6-methylpyridin-4-yl)-1,3,4-oxadiazol-2-yl)-3-(6-azaspiro [2.5]octan-6-yl)phenyl)-2-hydroxyethane-sulfonamide] are 0.002 µM and 0.033 µM.

Source of the values: patent US20250250264A1, “KIF18A INHIBITOR AND USE THEREOF” (Wuhan Humanwell Innovative Drug Research and Development …, priority 2022, published 2025).
